Results as given in patent US9796990B2 (priority 2011, dated 2017).
≈ marks a conversion by molar mass, not a printed value. Like-named read-outs stand apart in the source and are kept apart here.

Tests used:
[1] = system: Bluegill (Lepomis macrochirus); conditions: in vivo; cited from earlier work
Ceriodaphnia dubia = assay: whole plant or invertebrate; conditions: read-out: EC 50, effective concentration for 50% survival

SMILES | toxicity compared with the parent compound chlorpyriphos [1] | EC50 (Ceriodaphnia dubia; 24 h) [ng/mL] | EC50 (Ceriodaphnia dubia; 48 h) [ng/mL]
CCOP(O)(=S)OCC [diethyl thiophosphoric acid] | considerably less toxic than the parent compound | – | –
CCOP(=S)(OCC)Oc1cc(C)nc(C(C)C)n1 [Untreated diazinon, diazinon] | – | 0.389 (≈ 1.28 nM) | 0.195 (≈ 0.641 nM)
